{"source": "patent US20220218835A1", "about": "“COMBINATION THERAPY” (priority 2019, published 2022)", "tested_on": "MM1S tumours", "assay": "MM1S xenograft mouse model", "format": "in vivo, CB17 SCID mice", "method": "A CB17 SCID mice (n=7 each group) with palpable MM1S tumour implants were randomized and treated with control vehicle, a single dose of M2 (0.4 mg/kg), six doses of btz (0.4 mg/kg), or combination of M2 and btz (M2+btz) for 2 weeks. […] D Tumour tissue sections from each group were immunohistochemically analyzed for Ki-67 (original magnification, ×400). […] Tumours were removed at the same treatment day from representative mice.\nCB-17 SCID-mice were subcutaneously inoculated with 5.0×106 MM.1S cells in 100 μl of serum-free RPMI 1640 medium. When tumours were measurable approximately 3 weeks after MM-cell injection, mice (8 mice/group) were randomized and treated with vehicle alone, M2, btz, or M2 with btz. Tumour size was measured every third day in 2 dimensions using calipers, and tumour volume was calculated using the following formula: V=0.5a×b2, where “a” and “b” are the long and short diameter of the tumour, respectively. Animals were sacrificed when their tumours reached 2 cm^3.\nFollowing 3d-treatment, tumour from each group was harvested and cell lysates were made for immunoblotting. […] Immunohistochemical images were taken on Zeiss Inverted Fluorescence Microscope for Ki67. […]\nIn vivo efficacy of sub-optimal doses M2 with btz was next evaluated in the MM1S xenograft mouse model. […]"}
{"smiles": "CC(C)C[C@H](NC(=O)[C@H](Cc1ccccc1)NC(=O)c1cnccn1)B(O)O", "note": "[btz, Bortezomib]", "values": [{"measurement": "MM1S tumour growth", "setting": "24d after treatment, single dose M2, 6 doses btz (0.4 mg/kg)", "result": "significantly delays"}, {"measurement": "median overall survival", "setting": "Kaplan-Meier, follow-up 177 d", "result": 35, "unit": "days"}]}
